Measured values: patent US20240316047A1, “INHIBITORS OF RNA HELICASE DHX9 AND USES THEREOF” (ACCENT THERAPEUTICS, INC., priority 2022, published 2024)

Molecular target: Human recombinant DHX9 protein (Homo sapiens (Human), UniProt Q08211)
Assay: DHX9 ATPase assay (ADP-Glo)
Type: biochemical
Conditions: for IC50: read-out: DHX9 Biochemical Inflection Point

Sequence of Human recombinant DHX9 protein (Q08211 whole entry): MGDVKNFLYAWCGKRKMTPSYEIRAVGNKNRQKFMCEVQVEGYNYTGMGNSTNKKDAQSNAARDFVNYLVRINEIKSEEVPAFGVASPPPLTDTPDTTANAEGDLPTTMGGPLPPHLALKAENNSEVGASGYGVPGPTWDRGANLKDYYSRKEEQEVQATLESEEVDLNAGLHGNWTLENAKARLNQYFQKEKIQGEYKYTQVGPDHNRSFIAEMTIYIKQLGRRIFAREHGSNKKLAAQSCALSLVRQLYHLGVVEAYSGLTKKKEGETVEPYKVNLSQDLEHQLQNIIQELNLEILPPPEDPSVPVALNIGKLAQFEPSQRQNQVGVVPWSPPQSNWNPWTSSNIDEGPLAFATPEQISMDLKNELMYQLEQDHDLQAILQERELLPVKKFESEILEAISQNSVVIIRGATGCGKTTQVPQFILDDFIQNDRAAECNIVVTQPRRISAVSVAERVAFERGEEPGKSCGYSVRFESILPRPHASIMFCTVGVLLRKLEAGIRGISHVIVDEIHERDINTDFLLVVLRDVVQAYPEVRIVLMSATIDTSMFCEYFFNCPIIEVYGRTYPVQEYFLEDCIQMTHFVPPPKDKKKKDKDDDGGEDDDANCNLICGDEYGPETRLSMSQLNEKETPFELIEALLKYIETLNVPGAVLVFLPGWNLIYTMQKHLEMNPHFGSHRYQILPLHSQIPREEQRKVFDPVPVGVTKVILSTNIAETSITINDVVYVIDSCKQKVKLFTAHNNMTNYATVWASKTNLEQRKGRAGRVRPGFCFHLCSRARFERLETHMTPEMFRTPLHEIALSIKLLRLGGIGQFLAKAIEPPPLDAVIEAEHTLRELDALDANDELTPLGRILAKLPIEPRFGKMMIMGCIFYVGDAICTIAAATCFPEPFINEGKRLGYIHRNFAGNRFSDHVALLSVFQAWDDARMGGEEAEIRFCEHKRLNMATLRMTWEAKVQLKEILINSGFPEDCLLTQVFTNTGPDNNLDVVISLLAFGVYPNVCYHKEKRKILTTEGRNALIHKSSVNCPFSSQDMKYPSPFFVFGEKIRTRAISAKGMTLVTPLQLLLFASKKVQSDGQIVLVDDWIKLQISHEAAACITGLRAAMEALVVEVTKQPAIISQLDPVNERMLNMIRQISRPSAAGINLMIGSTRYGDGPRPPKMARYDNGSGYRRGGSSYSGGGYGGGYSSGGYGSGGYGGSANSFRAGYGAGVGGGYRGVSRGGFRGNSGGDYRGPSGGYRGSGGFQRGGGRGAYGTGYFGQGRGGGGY

DHX9 Biochemical Max Inhibition	IC50	SMILES
81.4	15.7 nM	COc1cnn(-c2cc(C(=O)Nc3cc(Cl)cc(NS(C)(=O)=O)c3)sc2C)c1 [Example 436]
66.9%	80.6 nM	CS(=O)(=O)Nc1cc(Cl)cc(NC(=O)c2cc3ncccc3s2)c1 [Example 289]
71.8	40.8 nM	Cc1cc(C(=O)Nc2cc(Cl)cc(NS(C)(=O)=O)c2)cn1-c1ccc(N2CCC3(CC3)C2)cn1 [Example 522]
65.8%	11.1 nM	CN1CCN(c2cnc(-n3cc(C(=O)Nc4cc(Cl)cc(NS(C)(=O)=O)c4)cn3)c(OCc3cccnc3)c2)CC1=O [Example 193]
65.6%	–	COc1cnc(-c2csc(C(=O)Nc3cc(Cl)cc(NS(C)(=O)=O)c3)c2)nc1 [Example 340]
61.5	26.2 nM	COc1cc(N2CC(F)(F)C2)cnc1-c1cc(C(=O)Nc2cc(Cl)cc(NS(=O)(=O)CCO)c2)sc1C [Example 528]
76.5%	6.3 nM	CS(=O)(=O)Nc1cc(Cl)cc(NC(=O)c2cnn(-c3cc(N4CCNCC4)ccn3)c2)c1 [Example 147]
65.3	3.8 nM	CN1CC(Oc2cnc(-c3cc(C(=O)Nc4cc(Cl)cc(NS(C)(=O)=O)c4)cn3C)c(F)c2)C1 [Example 611]
64.6%	34.6 nM	Cc1sc(C(=O)Nc2cc(Cl)cc(NS(C)(=O)=O)c2)cc1-c1ncc(C#N)cc1F [Example 375]
50.7	68.8 nM	Cc1cc(F)cc(C#N)c1-c1cc(C(=O)Nc2cc(Cl)cc(NS(C)(=O)=O)c2)cn1C [Example 659]
70.3%	102 nM	CC(=O)NC1CC2(C1)CC(n1cc(C(=O)Nc3cc(Cl)cc(NS(C)(=O)=O)c3)cn1)C2 (stereo not drawn) [Example 310]
83.4	22.5 nM	Cn1cc(C(=O)Nc2cc(Cl)cc(NS(C)(=O)=O)c2)cc1-c1ncc(N2CCC(F)(F)CC2)cc1F [Example 469]
62.65	32.9 nM	Cn1cc(C(=O)Nc2cc(Cl)cc(NS(C)(=O)=O)c2)cc1-c1ncc(N2CC(C(F)(F)F)C2)cc1F [Example 524, N-(3-chloro-5-methanesulfonamidophenyl)-5-{3-fluoro-5-[3-(trifluoromethyl)azetidin-1-yl]pyridin-2-yl}-1-methyl-1H-pyrrole-3-carboxamide]
90.7	12.2 nM	CCOc1cnc(-c2cc(C(=O)Nc3cc(Cl)cc(NS(C)(=O)=O)c3)cn2C)c(F)c1 [Example 453]
63.6%	147 nM	CC(=O)N1CC2(CC(n3cc(C(=O)Nc4cc(Cl)cc(NS(C)(=O)=O)c4)cn3)C2)C1 [Example 313]
63.5%	40.6 nM	CS(=N)(=O)Nc1cc(Br)cc(NC(=O)c2cc(-c3ccccn3)cs2)c1 (stereo not drawn) [Example 121, N-(3-bromo-5-(methylsulfonoamidimidamido)phenyl)-4-(pyridin-2-yl)thiophene-2-carboxamide]
65.9	8.8 nM	Cc1cc(C(=O)Nc2cc(Cl)cc(NS(C)(=O)=O)c2)cn1-c1ncc(N2CCC2)cn1 [Example 398]
69.5%	37.7 nM	CS(=O)(=O)Nc1cc(Cl)cc(NC(=O)c2cc3c(=O)[nH]ccn3c2)c1 [Example 301]

SMILES	DHX9 Biochemical Max Inhibition	IC50
CS(=O)(=O)Nc1cc(F)cc(NC(=O)c2cc(Br)cs2)c1 [Example 71, 4-bromo-N-(3-fluoro-5-(methylsulfonamido)phenyl)thiophene-2-carboxamide]	77.8%	171 nM
Cc1cc(C(=O)Nc2cc(Cl)cc(NS(C)(=O)=O)c2)cn1-c1ccc(N2C3CCC2CC3)cn1 [Example 523]	64.1	31.4 nM
